Activity and Activity data for 52 compounds are collected here from patent publication US8518980B2, “Treatment of Duchenne muscular dystrophy” (Summit Corporation PLC, priority 2006, dated 2013).

SMILES strings stand for the structures.

One assay concerns Utrophin A promoter linked to a luciferase reporter gene (H2K/mdx/Utro A reporter cell line). The experiment in a line: Luciferase reporter assay (murine H2K cells). As to conditions: Mus musculus, H2K mdx. On the technique in general: Reporter assays use an easily measured gene product as a stand-in for the process of interest.
For `CCOc1ccc(-c2nc3cc(N)ccc3o2)cc1` [Example 549, 2-(4-ethoxyphenyl)benzo[d]oxazol-5-amine], the activity at 10 µM is under 200%.
Still for that read-out and setting: the figure for `Nc1ccc2oc(-c3cccc4ccccc34)nc2c1` [Example 577, 2-(naphthalen-1-yl)benzo[d]oxazol-5-amine] is under 200%.
The same measure, in the same setting: the same measure for `O=C(Nc1ccc(-c2nc3ccccc3[nH]2)cc1)C1CCCO1` (stereo not shown) [Example 587, N-(4-(1H-Benzo[d]imidazol-2-yl)phenyl)tetrahydrofuran-2-carboxamide]: 301 to 400%; for `O=C(Nc1ccc(-c2nc3ccccc3s2)cc1)C1CCCO1` (stereo not shown) [Example 680, N-(4-(benzo[d]thiazol-2-yl)phenyl)tetrahydrofuran-2-carboxamide]: 201 to 300%.
On the same count and under the same terms, the same measure for `O=C(Nc1ccc(-c2nc3ccccc3[nH]2)cc1)c1ccccc1` [Example 497, N-(4-(1H-benzo[d]imidazol-2-yl)phenyl)benzamide]: under 200%; for `CC(C)C(=O)Nc1ccc(-c2nc3ccccc3s2)cc1` [Example 651, N-(4-(benzo[d]thiazol-2-yl)phenyl)isobutyramide]: 301 to 400%; for `Oc1ccccc1-c1nc2ccccc2s1` [Example 483, 2-(benzo[d]thiazol-2-yl)phenol]: under 200%.
Consider `OCc1cn(-c2ccccc2)nc1-c1cc2ccccc2o1` [Example 674, (3-(benzofuran-2-yl)-1-phenyl-1H-pyrazol-4-yl)methanol], for which the activity at 10 µM is 201 to 300%.
Same read-out and setting: the figure for `CCC(=O)Nc1cccc(-c2nc3cc(C)ccc3o2)c1` [Example 644, N-(3-(5-methylbenzo[d]oxazol-2-yl)phenyl)propionamide] is 301 to 400%.
For `Cc1cc2nc(-c3cccc(NC(=O)c4ccco4)c3)oc2cc1C` [Example 623, N-(3-(5,6-dimethylbenzo[d]oxazol-2-yl)phenyl)furan-2-carboxamide], the activity at 10 µM is over 401%.
Still for that read-out and setting: the figure for `Cc1cc2nc(-c3ccc(N)cc3)oc2cc1C` [Example 485, 4-(5,6-dimethylbenzo[d]oxazol-2-yl)aniline] is 201 to 300%; for `O=C(Nc1ccccc1F)C(=O)c1c[nH]c2ccccc12` [Example 689, N-(2-fluorophenyl)-2-(1H-indol-3-yl)-2-oxoacetamide] it is 201 to 300%; for `Nc1ccc2oc(-c3ccc(Cl)cc3)nc2c1` [Example 488, 2-(4-chlorophenyl)benzo[d]oxazol-5-amine] it is 201 to 300%.
On the same count and under the same terms, the same measure for `CCCS(=O)(=O)c1ccc2oc(-c3ccc(Cl)cc3)nc2c1` [Example 578, 2-(4-chlorophenyl)-5-(propylsulfonyl)benzo[d]oxazole]: under 200%.
On the same count and under the same terms, the figure for `Cc1ccc2sc(-c3ccc(NC(=O)c4cc(-n5cnnc5)ccc4Cl)cc3)nc2c1` [Example 688, 2-chloro-N-(4-(5-methylbenzo[d]thiazol-2-yl)phenyl)-5-(4H-1,2,4-triazol-4-yl)benzamide] is 201 to 300%; for `Cc1ccc(NC(=O)C(=O)c2c[nH]c3ccccc23)c(Br)c1` [Example 663, N-(2-bromo-4-methylphenyl)-2-(1H-indol-3-yl)-2-oxoacetamide] it is 301 to 400%; for `Cc1ccc2oc(-c3ccc(Cl)c(NC(=O)c4ccco4)c3)nc2c1` [Example 677, N-(2-chloro-5-(5-methylbenzo[d]oxazol-2-yl)phenyl)furan-2-carboxamide] it is 201 to 300%.
Regarding `Cc1ccc(-c2nc3cc(N)ccc3o2)c(Cl)c1` [Example 527, 2-(2-chloro-4-methylphenyl)benzo[d]oxazol-5-amine], the activity at 10 µM is 201 to 300%.
Regarding `CCC(=O)Nc1ccc2oc(-c3cccc(C)c3)nc2c1` [Example 668, N-(2-m-tolylbenzo[d]oxazol-5-yl)propionamide], the activity at 10 µM was 201 to 300%.
The same measure, in the same setting: the same measure for `Nc1ccc(-c2nc3ccccc3o2)cc1` [Example 478, 4-(benzo[d]oxazol-2-yl)aniline]: 201 to 300%; for `Cc1ccc(NC(=O)Nc2nc3ccccc3s2)cc1` [Example 637, 1-(benzo[d]thiazol-2-yl)-3-p-tolylurea]: 301 to 400%.
`CC(=O)Nc1cccc(-c2ccc3oc(-c4ccc(Cl)cc4)nc3c2)c1` [Example 575, N-(3-(2-(4-chlorophenyl)benzo[d]oxazol-5-yl)phenyl)acetamide]: the activity at 10 µM is over 401%.
Still for that read-out and setting: the figure for `O=[N+]([O-])c1cc(-c2nc3ccccc3s2)ccc1Cl` [Example 523, 2-(4-chloro-3-nitrophenyl)benzo[d]thiazole] is under 200%; for `O=[N+]([O-])c1ccc2[nH]c(-c3ccco3)nc2c1` [Example 508, 2-(furan-2-yl)-5-nitro-1H-benzo[d]imidazole] it is under 200%.
On the same count and under the same terms, the figure for `c1ccc(-c2ccc(-c3nc4ccccc4[nH]3)cc2)cc1` [Example 558, 2-(biphenyl-4-yl)-1H-benzo[d]imidazole] is under 200%; for `CCn1c(C)nc2cc(-c3ccccc3)ccc21` [Example 634, 1-ethyl-2-methyl-5-phenyl-1H-benzo[d]imidazole] it is 301 to 400%; for `COc1ccc(-c2nc3ccccc3o2)cc1N` [Example 619, 5-(benzo[d]oxazol-2-yl)-2-methoxyaniline] it is over 401%.
In the case of `COc1ccc(-c2nc3ccccc3s2)cc1NC(C)=O` [Example 542, N-(5-(benzo[d]thiazol-2-yl)-2-methoxyphenyl)acetamide], the activity at 10 µM was 201 to 300%.
The same measure, in the same setting: the same measure for `O=C(Nc1nc2ccccc2s1)c1cc(Br)ccc1Cl` [Example 671, N-(benzo[d]thiazol-2-yl)-5-bromo-2-chlorobenzamide]: 201 to 300%; for `CC(=O)Nc1ccc2oc(-c3ccc(Cl)cc3Cl)nc2c1` [Example 517, N-(2-(2,4-dichlorophenyl)benzo[d]oxazol-5-yl)acetamide]: 201 to 300%; for `Cc1cc(C)c2nc(-c3ccc(N)cc3)oc2c1` [Example 590, 4-(4,6-Dimethylbenzo[d]oxazol-2-yl)aniline]: over 401%.
On the same count and under the same terms, the same measure for `Cn1c(-c2ccc(N)cc2)nc2cc(N)ccc21` [Example 490, 2-(4-aminophenyl)-1-methyl-1H-benzo[d]imidazol-5-amine]: under 200%.
As for `Clc1ccc(-c2nc3ccccc3s2)c(Cl)c1` [Example 595, 2-(2,4-Dichlorophenyl)benzo[d]thiazole], the activity at 10 µM lay within 201 to 300%.
Same read-out and setting: the figure for `Cc1ccc2nc(-c3ccc(O)cc3)sc2c1` [Example 643, 4-(6-methylbenzo[d]thiazol-2-yl)phenol] is 301 to 400%; for `CC(=O)Nc1ccc(-c2nc3cc(C)ccc3o2)cc1` [Example 662, N-(4-(5-methylbenzo[d]oxazol-2-yl)phenyl)acetamide] it is 301 to 400%.
On the same count and under the same terms, the same measure for `O=C(Nc1cccc(-c2nc3ccccc3[nH]2)c1)c1cccs1` [Example 504, N-(3-(1H-benzo[d]imidazol-2-yl)phenyl)thiophene-2-carboxamide]: under 200%; for `CC(=O)Nc1cccc(-c2nc3ccccc3s2)c1` [Example 513, N-(3-(benzo[d]thiazol-2-yl)phenyl)acetamide]: under 200%; for `Clc1ccc(SCc2ccc(-c3nc4ccccc4[nH]3)cc2)cc1` [Example 460, 2-(4-((4-chlorophenylthio)methyl)phenyl)-1H-benzo[d]imidazole]: under 200%.
Still for that read-out and setting: the figure for `CCS(=O)(=O)c1ccc2oc(S)nc2c1` [Example 574, 5-(ethylsulfonyl)benzo[d]oxazole-2-thiol] is under 200%.
As to `O=C(Nc1ccccc1-c1nc2ccccc2[nH]1)c1ccc(Cl)cc1Cl` [Example 500, N-(2-(1H-benzo[d]imidazol-2-yl)phenyl)-2,4-dichlorobenzamide], the activity at 10 µM was under 200%.
Still for that read-out and setting: the figure for `Nc1ccc(O)c(-c2nc3cc(N)ccc3s2)c1` [Example 550, 4-amino-2-(5-aminobenzo[d]thiazol-2-yl)phenol] is under 200%; for `CCc1nc2cc(S(=O)(=O)CC)ccc2o1` [Example 572, 2-ethyl-5-(ethylsulfonyl)benzo[d]oxazole] it is under 200%.
Same read-out and setting: the figure for `COc1ccc(-c2nc3cc(N)ccc3o2)cc1OC` [Example 515, 2-(3,4-dimethoxyphenyl)benzo[d]oxazol-5-amine] is 201 to 300%; for `Cc1ccc2oc(-c3cccs3)nc2c1` [Example 612, 5-Methyl-2-(thiophen-2-yl)benzo[d]oxazole] it is 201 to 300%; for `COc1ccc(-c2nc3cc(N)ccc3[nH]2)cc1` [Example 535, 2-(4-methoxyphenyl)-1H-benzo[d]imidazol-5-amine] it is 201 to 300%.
On the same count and under the same terms, the same measure for `CN(C)c1ccc(-c2nc3ccccc3[nH]2)cc1` [Example 498, 4-(1H-benzo[d]imidazol-2-yl)-N,N-dimethylaniline]: under 200%; for `CCC(C)c1ccc2oc(-c3ccc(N)cc3)nc2c1` (stereo not shown) [Example 609, 4-(5-Sec-butylbenzo[d]oxazol-2-yl)aniline]: 301 to 400%; for `Oc1ccc2nc(-c3ccc(Cl)cc3)oc2c1` [Example 579, 2-(4-chlorophenyl)benzo[d]oxazol-6-ol]: over 401%.

The same assay, now with this note: Table 1; luciferase level relative to control; final concentration of 10 μM.
Regarding `O=C(O)c1cccc(-c2ccc3oc(-c4ccc(Cl)cc4)nc3c2)c1` [Example 313, 3-(2-(4-chlorophenyl)benzo[d]oxazol-5-yl)benzoic acidd], the Activity entry is given as “+ (Up to 200% relative to control)”.
Same read-out and setting: the entry for `Clc1ccc(-c2nc3cc4c(cc3o2)OCO4)cc1Cl` [Example 361, 2-(3,4-chlorophenyl)-5,6-methylenedioxybenzoxazole] is “+ (Up to 200% relative to control)”.

Staying with this assay, now noted: Table 2; luciferase level relative to control; final concentration of 10 μM.
For `O=C(c1ccccc1)c1ccc2nc(-c3ccccc3)[nH]c2c1` [Example 581, Phenyl (2-phenyl-1H-benzo[d]imidazol-6-yl)methanone], the Activity entry is “+ (Up to 200% relative to control)”.
On the same count and under the same terms, the entry for `COc1ccc(OCc2nc3ccccc3[nH]2)cc1` [Example 473, 2-((4-methoxyphenoxy)methyl)-1H-benzo[d]imidazole] is “++ (Between 201% and 300% relative to control)”.
